Broadly, the MIC is the smallest concentration in the dilution series that meets the test's criterion for growth inhibition. A higher MIC goes with a need for much substance. A word on the inhibition: it is the relative decrease from the control value, in per cent. High values mean a strong effect, low ones a weak effect. By IC50 is commonly meant the concentration at which inhibition is half-maximal. In general, half-life refers to the time needed for the level to fall by half in the phase considered. Read a high half-life as slow decline.

Here are results for 17 compounds from ChEMBL document CHEMBL4312010, “Synthesis and antibacterial evaluation of novel oxazolidinone derivatives containing a piperidinyl moiety” (Bioorg Med Chem Lett, 2019).

In series [1] the test system is Staphylococcus aureus. The series is described as follows: Antibacterial activity agianst Staphylococcus aureus ATCC 29213. It counts as functional.
For series [2], the system named is Staphylococcus aureus. The experiment in a line: Antibacterial activity agianst methicillin-sensitive Staphylococcus aureus. The format is functional.
For series [3], the system named is Staphylococcus aureus. The experiment in a line: Antibacterial activity agianst methicillin-resistant Staphylococcus aureus. The format is functional.
In series [4] the test system is Enterococcus faecalis. The experiment in a line: Antibacterial activity agianst linezolid-resistant Enterococcus faecalis. The format is functional.
Series [5] relates to Enterococcus faecium. The experiment in a line: Antibacterial activity agianst vancomycin-resistant Enterococcus faecium. The format is functional.
Series [6] concerns the target T1, MAO-A (amine oxidase [flavin-containing] A) (Homo sapiens, UniProt P21397).
T1 sequence (P21397 whole entry): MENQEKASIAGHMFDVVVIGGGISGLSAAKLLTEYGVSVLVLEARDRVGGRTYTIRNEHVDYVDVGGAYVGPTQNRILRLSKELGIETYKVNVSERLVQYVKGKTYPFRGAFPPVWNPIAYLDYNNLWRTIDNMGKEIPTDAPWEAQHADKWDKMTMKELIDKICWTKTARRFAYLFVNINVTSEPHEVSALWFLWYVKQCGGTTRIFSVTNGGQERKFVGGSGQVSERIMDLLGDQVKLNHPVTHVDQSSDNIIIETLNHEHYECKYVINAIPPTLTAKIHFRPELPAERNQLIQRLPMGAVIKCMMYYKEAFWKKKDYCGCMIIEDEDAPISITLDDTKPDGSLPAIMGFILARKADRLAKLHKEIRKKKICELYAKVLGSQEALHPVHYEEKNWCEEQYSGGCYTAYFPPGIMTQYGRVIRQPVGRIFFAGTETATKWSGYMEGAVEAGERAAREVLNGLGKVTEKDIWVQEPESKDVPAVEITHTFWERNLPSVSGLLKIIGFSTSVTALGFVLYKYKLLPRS
The series is described as follows: Inhibition of human MAO-A at 30 uM relative to control.

Series [7] has as its system Staphylococcus aureus. The experiment in a line: Antibacterial activity agianst methicillin-resistant Staphylococcus aureus clinical isolates. The format is functional.
A further series deals with HepG2. The series is described as follows: Cytotoxicity against human HepG2 cells assessed as reduction in cell viability. It counts as cell-based.
Series [8] relates to Enterococcus faecalis. The series is described as follows: Antibacterial activity agianst linezolid-resistant Enterococcus faecalis clinical isolates. The format is functional.
For series [9], the system named is Enterococcus faecium. The series is described as follows: Antibacterial activity agianst vancomycin-resistant Enterococcus faecium clinical isolates. The format is functional.
For series [10], the system named is Staphylococcus aureus. The experiment in a line: Antibacterial activity agianst methicillin-sensitive Staphylococcus aureus clinical isolates. The format is functional.
Series [11] in a line: Metabolic stability in human liver microsomes assessed as parent compound remaining after 45 mins in presence of NADPH relative to control. It counts as ADME, Microsome. The conditions noted are these: read-out: Stability. Background: Liver microsomes are a subcellular fraction often used to study metabolism.
Series [12] is described as follows: Intrinsic clearance in human liver microsomes. It counts as ADME, Microsome. The note with it: read-out: CLH.
Series [13] relates to Enterococcus faecalis. The experiment in a line: Potency index, ratio of linezolid MIC to compound MIC for antibacterial activity against linezolid-resistant Enterococcus faecalis. It counts as functional.
The test system of series [14] is Enterococcus faecalis. The series is described as follows: Potency index, ratio of linezolid MIC to compound MIC for antibacterial activity against linezolid-resistant Enterococcus faecalis clinical isolates. The format is functional.
A short description of series [15]: Half life in human liver microsomes. The format is ADME, Microsome.

Values after ≈ are worked out from the molar mass of the structure shown.

Take `CC(=O)NC[C@H]1CN(c2ccc(N3CCC(Nc4ccc(Br)cc4F)CC3)c(F)c2)C(=O)O1`: the minimum inhibitory concentration (MIC) in the series on Staphylococcus aureus [1] is 2 µg/mL (≈ 3.82 µM); against Staphylococcus aureus [2] it was 2 µg/mL (≈ 3.82 µM); with Staphylococcus aureus [3], 2 µg/mL (≈ 3.82 µM); against Enterococcus faecalis [4] it was 1 µg/mL (≈ 1.91 µM); against Enterococcus faecium [5] it was 2 µg/mL (≈ 3.82 µM).
For `CC(=O)NC[C@H]1CN(c2ccc(N3CCC(Nc4ccc(Cl)cc4)CC3)c(F)c2)C(=O)O1`, the MIC against Staphylococcus aureus [1], in the series on Staphylococcus aureus [2], against Staphylococcus aureus [3], in the series with Enterococcus faecalis [4] and against Enterococcus faecium [5] was 2 µg/mL (≈ 4.34 µM) throughout.
Turning to `CC(=O)NC[C@H]1CN(c2ccc(N3CCOCC3)c(F)c2)C(=O)O1` [LINEZOLID], the MIC in the series on Staphylococcus aureus [1] is 1 µg/mL (≈ 2.96 µM); in the series on Staphylococcus aureus [2], 1 µg/mL (≈ 2.96 µM); against Staphylococcus aureus [3], 1 µg/mL (≈ 2.96 µM); against Enterococcus faecalis [4] it was more than 16 µg/mL; with Staphylococcus aureus [7], 1 to 4 µg/mL (≈ 2.96 to 11.9 µM); in the series with Enterococcus faecalis [8] it was more than 16 µg/mL. The MIC was 1 to 4 µg/mL (≈ 2.96 to 11.9 µM) against Enterococcus faecium [9], 1 to 2 µg/mL (≈ 2.96 to 5.93 µM) against Staphylococcus aureus [10] and 2 µg/mL (≈ 5.93 µM) against Enterococcus faecium [5]. For the same compound, in series [6], at 30 µM the inhibition was 75%. Further, the IC50 with HepG2 was more than 64 µM. In [11], the remaining at 0.75 h is 18%.
On to `CC(=O)NC[C@H]1CN(c2ccc(N3CCN(/N=C/c4ccc([N+](=O)[O-])o4)CC3)c(F)c2)C(=O)O1`, for which the MIC in the series on Staphylococcus aureus [1] came to 0.5 µg/mL (≈ 1.05 µM); with Staphylococcus aureus [3], 1 µg/mL (≈ 2.11 µM); against Enterococcus faecium [5], 1 µg/mL (≈ 2.11 µM).
Regarding `CC(=O)NC[C@H]1CN(c2ccc(N3CCC(Nc4ccc(OC(F)(F)F)cc4)CC3)c(F)c2)C(=O)O1`, the minimal inhibitory concentration (MIC) against Staphylococcus aureus [1] was 1 µg/mL (≈ 1.96 µM); against Staphylococcus aureus [2] it was 1 µg/mL (≈ 1.96 µM); in the series on Staphylococcus aureus [3], 1 µg/mL (≈ 1.96 µM); against Enterococcus faecalis [4], 0.5 µg/mL (≈ 0.979 µM); against Enterococcus faecium [5] it was 0.5 µg/mL (≈ 0.979 µM).
As for `CC(=O)NC[C@H]1CN(c2ccc(N3CCC(NCc4ccc(F)cc4)CC3)c(F)c2)C(=O)O1`, the MIC against Staphylococcus aureus [1] turned out to be 1 µg/mL (≈ 2.18 µM); in the series on Staphylococcus aureus [2], 1 µg/mL (≈ 2.18 µM); with Staphylococcus aureus [3], 1 µg/mL (≈ 2.18 µM); in the series with Enterococcus faecalis [4], 2 µg/mL (≈ 4.36 µM); in the series with Enterococcus faecium [5], 2 µg/mL (≈ 4.36 µM).
For `CC(=O)NC[C@H]1CN(c2ccc(N3CCC(Nc4ccccc4)CC3)c(F)c2)C(=O)O1`, the MIC was 1 µg/mL (≈ 2.34 µM) in the series with Staphylococcus aureus [1]; 1 µg/mL (≈ 2.34 µM) in the series on Staphylococcus aureus [2]; 1 µg/mL (≈ 2.34 µM) in the series with Staphylococcus aureus [3]; 0.5 µg/mL (≈ 1.17 µM) with Enterococcus faecalis [4]; 0.125 to 0.25 µg/mL (≈ 0.293 to 0.586 µM) against Enterococcus faecalis [8]; 0.25 to 0.5 µg/mL (≈ 0.586 to 1.17 µM) with Enterococcus faecium [9]. Further, the figures for the MIC with Staphylococcus aureus [10] and in the series on Enterococcus faecium [5] were 0.5 to 1 µg/mL (≈ 1.17 to 2.34 µM) and 1 µg/mL (≈ 2.34 µM), respectively. Besides, the inhibition at 30 µM in series [6] is 85%.
Consider `CC(=O)NC[C@H]1CN(c2ccc(N3CCC(Nc4ccccc4OC(F)(F)F)CC3)c(F)c2)C(=O)O1`, for which the MIC with Staphylococcus aureus [1] was found to be 2 µg/mL (≈ 3.92 µM); against Staphylococcus aureus [2], 2 µg/mL (≈ 3.92 µM); against Staphylococcus aureus [3] it was 2 µg/mL (≈ 3.92 µM); against Enterococcus faecalis [4], 1 µg/mL (≈ 1.96 µM); in the series with Enterococcus faecium [5], 2 µg/mL (≈ 3.92 µM).
As to `CC(=O)NC[C@H]1CN(c2ccc(N3CCC(Nc4ccccc4Br)CC3)c(F)c2)C(=O)O1`, the MIC with Staphylococcus aureus [1], against Staphylococcus aureus [2], in the series with Staphylococcus aureus [3], with Enterococcus faecalis [4] and in the series on Enterococcus faecium [5] was 2 µg/mL (≈ 3.96 µM) throughout.
Take `CC(=O)NC[C@H]1CN(c2ccc(N3CCC(Nc4cccc(OC(F)(F)F)c4)CC3)c(F)c2)C(=O)O1`: the MIC against Staphylococcus aureus [1], against Staphylococcus aureus [2], with Staphylococcus aureus [3], in the series with Enterococcus faecalis [4] and in the series with Enterococcus faecium [5] was 2 µg/mL (≈ 3.92 µM) in each case.
On to `CC(=O)NC[C@H]1CN(c2ccc(N3CCN(Cc4ccc([N+](=O)[O-])o4)CC3)c(F)c2)C(=O)O1` [RANBEZOLID], for which the MIC against Staphylococcus aureus [1], against Staphylococcus aureus [2], against Staphylococcus aureus [3], in the series with Enterococcus faecalis [4] and with Enterococcus faecium [5] was 0.5 µg/mL (≈ 1.08 µM) in each case.
For the compound `CC(=O)NC[C@H]1CN(c2ccc(N3CCC(Nc4ccc(F)cc4)CC3)c(F)c2)C(=O)O1`, the MIC against Staphylococcus aureus [1] was found to be 1 µg/mL (≈ 2.25 µM); with Staphylococcus aureus [2], 1 µg/mL (≈ 2.25 µM); against Staphylococcus aureus [3] it was 0.5 µg/mL (≈ 1.12 µM); against Enterococcus faecalis [4], 1 µg/mL (≈ 2.25 µM); in the series on Enterococcus faecium [5] it was 1 µg/mL (≈ 2.25 µM).
For the compound `CC(=O)NC[C@H]1CN(c2ccc(N3CCC(NCc4ccccc4)CC3)c(F)c2)C(=O)O1`, the MIC in the series with Staphylococcus aureus [1] came out at 2 µg/mL (≈ 4.54 µM); in the series on Staphylococcus aureus [2] it was 1 µg/mL (≈ 2.27 µM); against Staphylococcus aureus [3], 1 µg/mL (≈ 2.27 µM); against Enterococcus faecalis [4], 2 µg/mL (≈ 4.54 µM); in the series on Enterococcus faecium [5], 2 µg/mL (≈ 4.54 µM).
For `CC(=O)NC[C@H]1CN(c2ccc(N3CCC(Nc4ccc(C(C)C)cc4)CC3)c(F)c2)C(=O)O1`, the MIC with Staphylococcus aureus [1] is 2 µg/mL (≈ 4.27 µM); against Staphylococcus aureus [2] it was 2 µg/mL (≈ 4.27 µM); with Staphylococcus aureus [3], 1 µg/mL (≈ 2.13 µM); in the series with Enterococcus faecalis [4], 0.5 µg/mL (≈ 1.07 µM); in the series on Enterococcus faecium [5] it was 0.5 µg/mL (≈ 1.07 µM).
`CC(=O)NC[C@H]1CN(c2ccc(N3CCC(N(C)c4ccc(Br)cc4)CC3)c(F)c2)C(=O)O1`: the minimal inhibitory concentration (MIC) was found to be 2 µg/mL (≈ 3.85 µM) against Staphylococcus aureus [1]; 2 µg/mL (≈ 3.85 µM) against Staphylococcus aureus [2]; 2 µg/mL (≈ 3.85 µM) in the series on Staphylococcus aureus [3]; 1 µg/mL (≈ 1.93 µM) with Enterococcus faecalis [4]; 1 µg/mL (≈ 1.93 µM) with Enterococcus faecium [5].
Take `CC(=O)NC[C@H]1CN(c2ccc(N3CCC(Nc4ccc(Br)cc4)CC3)c(F)c2)C(=O)O1`: the MIC was 1 µg/mL (≈ 1.98 µM) in the series with Staphylococcus aureus [1]; 1 µg/mL (≈ 1.98 µM) against Staphylococcus aureus [2]; 0.5 µg/mL (≈ 0.989 µM) against Staphylococcus aureus [3]; 0.25 µg/mL (≈ 0.495 µM) in the series with Enterococcus faecalis [4]; 0.0625 to 0.25 µg/mL (≈ 0.124 to 0.495 µM) with Enterococcus faecalis [8]; 0.125 to 0.25 µg/mL (≈ 0.247 to 0.495 µM) with Enterococcus faecium [9]. Besides, the values for the MIC in the series on Staphylococcus aureus [10] and against Enterococcus faecium [5] were 0.5 to 1 µg/mL (≈ 0.989 to 1.98 µM) and 0.25 µg/mL (≈ 0.495 µM), respectively. Besides, the CLint scaled in [12] is 3.46 mL/min/kg. This compound also registered an inhibition at 30 µM in series [6] of 70%. In addition, the Ratio in the series on Enterococcus faecalis [13] and with Enterococcus faecalis [14] was 64 throughout. Also, the IC50 in the series with HepG2 was more than 64 µM. In addition, the half-life in [15] turned out to be 8.37 h. Besides, in series [11], the remaining at 0.75 h was 97%.
Take `CC(=O)NC[C@H]1CN(c2ccc(N3CCC(Nc4cccc(Br)c4)CC3)c(F)c2)C(=O)O1`: the MIC with Staphylococcus aureus [1], in the series on Staphylococcus aureus [2], in the series with Staphylococcus aureus [3], with Enterococcus faecalis [4] and in the series with Enterococcus faecium [5] was 2 µg/mL (≈ 3.96 µM) each time.
